Columns and labels:
[1] = system: α-amylase; assay: Measurement of α-amylase activity with Reagent I (substrate, α-glucosidase, mannitol dehydrogenase, NADH); assay type: biochemical; settings: substrate 1 mmol/l; sample serum containing 90 mU/ml and 270 mU/ml; 37° C., 10 minutes; linear after 6 minutes
Procedure: When the substrate and glucosidase as a coupled enzyme are added to a sample such as a body fluid or the like, the reaction proceeds as shown below in the case of the malto-oligo saccharide represented by general formula (I) (hereinafter MeG5 F represented by general formula (IV) is used as a specific example of general formula (I)). [drawing 6]
The thus liberated monosaccharides such as fructose or the like and derivatives thereof are reacted with, for example, mannitol dehydrogenase (MDH) or sorbitol dehydrogenase (SDH) in the presence of NADH thereby to produce […]; by the change in absorbancy, the amount of fructose can be determined. [drawing 7]
Reagent I was prepared by the following formulation.
(§1) 1 mmol/l (final concentration)
(§2) 25 U/ml (final concentration)
40 U/ml (final concentration)
NADH 0.16 mmol/l (final concentration)
(§3) 100 mmol/l (final concentration)
100 mmol/1 (final concentration) To 800 μl of Reagent I described above was added 100 μl of a sample serum containing 90 mU/ml and 270 mU/ml, respectively. While incubating at 37° C. for 10 minutes, change in absorbancy was measured at 340 nm.
Measurement was performed in a similar manner except that 100 mg/ml of glucose was further added to each sample serum.

[2] = system: α-amylase; assay: Measurement of α-amylase activity with Reagent II (substrate, α-glucosidase, inositol dehydrogenase, NAD); assay type: biochemical; settings: substrate 1 mmol/l; sample serum containing 55 mU/ml and 220 mU/ml; 37° C., 10 minutes; linear after 4 minutes
Procedure: On the other hand, in the case of using the malto-oligo saccharide represented by general formula (V), when the substrate and glucosidase as a coupled enzyme are added to a sample such as a body fluid or the like, the reaction proceeds as shown below (hereinafter G5 I represented by general formula (VI) is used as a specific example of general formula (V)). [drawing 8]
The thus liberated inositol or derivatives thereof are reacted with inositol dehydrogenase (IDH) in the presence of NAD thereby to produce NADH; by the change in absorbancy, the amount of inositol can be determined. [drawing 9]
Reagent II was prepared by the following formulation.
as §1, §2
40 U/ml (final concentration
NAD 40 mmol/l (final concentration)
as §3
To 800 μl of Reagent II described above was added 100 μl of a sample serum containing 55 mU/ml and 220 mU/ml, respectively. While incubating at 37° C. for 10 minutes, change in absorbancy was measured at 340 nm.
Measurement was performed in a similar manner as in Example 5 except that 100 mg/ml of glucose was further added to each sample serum.

| Compound | change in absorbancy at 340 nm (FIG. 1) [1] | change in absorbancy at 340 nm (FIG. 2) [2] |
| --- | --- | --- |
| COC[C@H]1O[C@H](O[C@H]2[C@H](O)[C@@H](O)[C@@H](O[C@H]3[C@H](O)[C@@H](O)[C@@H](O[C@H]4[C@H](O)[C@@H](O)[C@@H](O[C@H]5[C@H](O)[C@@H](O)[C@@H](O[C@]6(CO)O[C@H](CO)[C@@H](O)[C@@H]6O)O[C@@H]5CO)O[C@@H]4CO)O[C@@H]3CO)O[C@@H]2CO)[C@H](O)[C@@H](O)[C@@H]1OC [MeG5 F] | good linear relationship was obtained in any concentration after 6 minutes |  |
| OC[C@H]1O[C@H](O[C@H]2[C@H](O)[C@@H](O)[C@@H](O[C@H]3[C@H](O)[C@@H](O)[C@@H](O[C@H]4[C@H](O)[C@@H](O)[C@@H](O[C@H]5[C@H](O)[C@@H](O)[C@@H](OC6C(O)C(O)C(O)C(O)C6O)O[C@@H]5CO)O[C@@H]4CO)O[C@@H]3CO)O[C@@H]2CO)[C@H](O)[C@@H](O)[C@@H]1O (some centres unmarked) [G5 I] |  | good linear relationship was obtained in any concentration after 4 minutes |

Source: US5068183A, “Method for measurement of α-amylase activity” (Kurita Water Industries, Ltd., priority 1986, dated 1991)
